The supplement of paper PMC10627819

Key:
[1] = tested on: S. aureus Newman; experiment: fitness (endpoint OD595 vs no drug) (fraction); higher = more growth
Summary of the method: (§1)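 Growth medium was TSB, LB Lennox or CY, and plates were kept at 37 °C. Inoculation was at OD595 0.01 in 384-well plates, at 30 µl per well or 55 µl for S. pneumoniae. OD595 was monitored every 30 min for 14 h and background-subtracted using the first reading. Fitness is the optical density on entering stationary phase divided by the robust mean of no-drug controls, with values capped at 1.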

[2] = tested on: S. pneumoniae D39V; experiment: as above
Summary of the method: as §1

[3] = tested on: B. subtilis 168; experiment: Bliss interaction score (quartile over a dose matrix) (fitness difference); higher = more antagonism (negative = synergy)
Summary of the method: (§2)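 Quartiles of the Bliss score were taken over technical, biological and donor/recipient replicates. That score is observed fitness minus the product of the single-drug fitness values, which were inferred from combination data. Fitness itself is OD595 at entry into stationary phase divided by the plate's robust no-drug mean, with a cap at 1.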

[4] = tested on: S. aureus DSM 20231; experiment: as above
Summary of the method: as §2

[5] = tested on: S. aureus Newman; experiment: as above
Summary of the method: as §2

[6] = tested on: S. pneumoniae D39V; experiment: as above
Summary of the method: as §2
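For Bliss interaction score (quartile over a dose matrix) in this document: first quartile when negative (synergy) and third quartile when positive (antagonism).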

CC1(C)S[C@@H]2[C@H](NC(=O)[C@H](N)c3ccc(O)cc3)C(=O)N2[C@H]1C(=O)O [Amoxicillin] + CC(C1CCC(C(O1)OC2C(CC(C(C2O)OC3C(C(C(CO3)(C)O)NC)O)N)N)N)NC [Gentamicin]
fitness, main component drawn
Conditions	partner 0.375 µg/mL	partner 0.5 µg/mL	partner 0.75 µg/mL	partner 1 µg/mL	partner 1.5 µg/mL	partner 2 µg/mL	partner 4 µg/mL	partner 8 µg/mL
[1], first compound 0.0625 µg/mL	0.91	0.878	0.896	0.911	0.892	0.972	–	–
[1], first compound 0.125 µg/mL	0.984	0.851	≥ 1	0.899	0.974	0.968	–	–
[1], first compound 0.25 µg/mL	0.983	0.858	0.944	0.847	0.961	–	–	–
[2], first compound 0.0008 µg/mL	–	–	–	–	–	0.977	0.935	0.942
[2], first compound 0.0015 µg/mL	–	–	–	–	–	0.988	0.94	0.946
[2], first compound 0.003 µg/mL	–	–	–	–	–	0.926	0.9	0.851

fitness, one replicate, main component drawn
Conditions	partner 2 µg/mL	partner 4 µg/mL	partner 8 µg/mL
[1], first compound 0.0625 µg/mL	–	0.0669	–
[1], first compound 0.125 µg/mL	–	0.0478	–
[1], first compound 0.25 µg/mL	–	0.0624	–
[2], first compound 0.006 µg/mL	0.587	0.634	0.508

main component drawn
Conditions	Bliss interaction score
[3]	-0.0767
[4]	0.0684
[5]	0.0602
[6]	0.055

CC1(C)S[C@@H]2[C@H](NC(=O)[C@H](N)c3ccc(O)cc3)C(=O)N2[C@H]1C(=O)O [Amoxicillin] + CN(C)c1cc(NC(=O)CNC(C)(C)C)c(O)c2c1C[C@H]1C[C@H]3[C@H](N(C)C)C(O)=C(C(N)=O)C(=O)[C@@]3(O)C(O)=C1C2=O [Tigecycline]
Conditions	fitness
[1], first compound 0.0625 µg/mL, partner 0.039 µg/mL	0.892
[1], first compound 0.0625 µg/mL, partner 0.078 µg/mL	0.903
[1], first compound 0.0625 µg/mL, partner 0.156 µg/mL	0.884
[1], first compound 0.125 µg/mL, partner 0.039 µg/mL	0.875
[1], first compound 0.125 µg/mL, partner 0.078 µg/mL	0.922
[1], first compound 0.125 µg/mL, partner 0.156 µg/mL	0.862
[1], first compound 0.25 µg/mL, partner 0.039 µg/mL	0.799
[1], first compound 0.25 µg/mL, partner 0.078 µg/mL	0.867
[1], first compound 0.25 µg/mL, partner 0.156 µg/mL	0.817
[2], first compound 0.0008 µg/mL, partner 0.65 µg/mL	0.928
[2], first compound 0.0008 µg/mL, partner 1.3 µg/mL	≥ 1
[2], first compound 0.0008 µg/mL, partner 2.6 µg/mL	0.968
[2], first compound 0.0015 µg/mL, partner 0.325 µg/mL	0.941
[2], first compound 0.0015 µg/mL, partner 0.65 µg/mL	0.942
[2], first compound 0.0015 µg/mL, partner 1.3 µg/mL	0.994
[2], first compound 0.0015 µg/mL, partner 2.6 µg/mL	0.956
[2], first compound 0.003 µg/mL, partner 0.325 µg/mL	0.904
[2], first compound 0.003 µg/mL, partner 0.65 µg/mL	0.921
[2], first compound 0.003 µg/mL, partner 1.3 µg/mL	0.944
[2], first compound 0.003 µg/mL, partner 2.6 µg/mL	0.877

fitness, [2], one replicate
Conditions	partner 0.325 µg/mL	partner 0.65 µg/mL	partner 1.3 µg/mL
first compound 0.0008 µg/mL	0.969	–	–
first compound 0.006 µg/mL	0.386	0.449	0.458

Conditions	Bliss interaction score
[3]	-0.0604
[4]	-0.0322
[5]	0.0642
[6]	0.0424
